Here are results for 2 compounds from patent KR20100138114A, “안정성이 향상된 무정형 아데포비어 디피복실 고체분산체 및 이의 제조방법” (대원제약주식회사, priority 2009, dated 2010).

Series [1] is described as follows: Crystal form conversion test of crystalline adefovir dipivoxil (Experimental Example 1, X-ray diffraction). In kind it is physicochemical. To be noted: overall conclusion: 40 °C, relative humidity 75%, 3 days, then drying at 60 °C.
The conditions of series [2]: pH 2.0; cited from earlier work.

Turning to `CC(C)(C)C(=O)OCOP(=O)(COCCn1cnc2c(N)ncnc21)OCOC(=O)C(C)(C)C` [신규결정형], the “crystal form conversion depending on storage conditions” value in series [1] is “결정형이 전환”.
Take `CC(C)(C)C(=O)OCOP(=O)(COCCn1cnc2c(N)ncnc21)OCOC(=O)C(C)(C)C` [아데포비어 디피복실, 9-[2-[[{bis(pivaloyloxy)-methoxy}phosphinyl]methoxy]ethyl]adenine]: in series [2], the “solubility class (BCS)” value was “높은 용해도(High solubility)”.
